Data as given in patent US4978654A, “Composition and method for treatment of disseminated fungal infections in mammals” (priority 1987, dated 1990).
In brackets after ≈: the same amount, converted by molar mass.

Key:
[1] = system: yeast species, clinical isolates; assay: In vitro antifungal activity summarized over the 19 yeast strains; format: cell-based
Procedure: In vitro tests were conducted to determine the effect of free Amp B, Amp B encapsulated in nor-sterol-containing liposomes, (L-Amp B), Amp B encapsulated in cholesterol-containing liposomes (L-Amp B-C) and Amp B in ergosterol-containing liposomes (L-Amp B-E). Desoxycholate free Amphotericin B was obtained from E. R. Squibb & Sons, Inc. Amp B was encapsulated in non-sterol containing liposomes by the method described by Lopez-Berestein, et al., and summarized in Example 1, above. In order to obtain the different doses necessary, lipid concentration was held constant as the Amp B concentration was decreased. The concentration of Amp B within the liposome was determined by scanning in a UV absorption spectrophotometer (Gilford Instrument Laboratories, Oberlin, Ohio) at 405 nm after the Amp B was dissolved in methanol. […]
In vitro activity of free Amp B, L-Amp B, L-Amp B-C and L-Amp B-E was tested on the following yeast species, all clinical isolates obtained from the Clinical Microbiology Laboratories at the University of Texas M.D. Anderson Hospital and Tumor Institute at Houston: Candida albicans, C. tropicalis, C. parapsilosis, Torulopsis glabrata and Cryptococcus neoformans. […] Minimal fungicidal concentrations (MFC) were determined after incubation for 18 hours. […]

[2] = system: systemic fungal infection (fungal liver abscesses, consistent with Aspergillus spp.); conditions: human, in vivo
[3] = intravenous administration; cited from earlier work
C. albicans = assay: MFC of Amp B in different phospholipid compositions (Table 3); format: cell-based, Candida albicans; conditions: effect of lipid composition
Excerpt: The compositions included one or more of the following: DMPC, DMPG, cholesterol (Chol), ergosterol (Erg), and stearylamine (SA).

[4] = Toxicity / tolerated dose in mice; conditions: mouse, in vivo
Excerpt: The liposome-encapsulated Amp B may then be administered to a mammal infected with a fungal infection.

C. albicans 336 = assay: Survival of infected mice, effect of lipid composition (FIG. 3); format: in vivo, Hale-Stoner mice; conditions: 1.6 mg Amp B/kg
Procedure: Hale-Stoner mice, 6-8 weeks old and weighing 20-25 g, were obtained from The University of Texas Science Park (Bastrop, Tex.). Mice (10 per group) were injected intravenously with Candida albicans strain 336. This strain was grown for 18 hours on SDA plates at 37° C., washed and resuspended in saline. The mice were injected in the tail vein with 0.2 ml of the suspension containing 7×10^5 colony-forming units. […] The mice were injected on the second day of infection with a single dose of Amphotericin B.
Amp B was encapsulated in sterol-free and sterol-containing liposomes prepared by the method described in Example 2, above. Amp B concentration was determined at 405 nm as described in Example 2.
The effect of the lipid composition of the liposome on the survival of mice infected with C. albicans 336 was also evaluated. Each liposome case shown in FIG. 3 used 1.6 mg Amp B in 200 mg total lipid/kg.

Candida glabrata = assay: In vitro MFC, YNB tube dilution (Table 1); format: cell-based, Candida glabrata (Torulopsis glabrata in method); conditions: 18 h
Procedure: (§1) In vitro tests were conducted to determine the effect of free Amp B, Amp B encapsulated in nor-sterol-containing liposomes, (L-Amp B), Amp B encapsulated in cholesterol-containing liposomes (L-Amp B-C) and Amp B in ergosterol-containing liposomes (L-Amp B-E). Desoxycholate free Amphotericin B was obtained from E. R. Squibb & Sons, Inc. Amp B was encapsulated in non-sterol containing liposomes by the method described by Lopez-Berestein, et al., and summarized in Example 1, above. In order to obtain the different doses necessary, lipid concentration was held constant as the Amp B concentration was decreased. The concentration of Amp B within the liposome was determined by scanning in a UV absorption spectrophotometer (Gilford Instrument Laboratories, Oberlin, Ohio) at 405 nm after the Amp B was dissolved in methanol. Cholesterol or ergosterol, obtained from Avanti Polar Lipids (Birmingham, Ala.), was added to the chloroform DMPC:DMPG solution at a molar ratio of 7:3:4 (DMPC:DMPG:sterol).
(§2) In vitro activity of free Amp B, L-Amp B, L-Amp B-C and L-Amp B-E was tested on the following yeast species, all clinical isolates obtained from the Clinical Microbiology Laboratories at the University of Texas M.D. Anderson Hospital and Tumor Institute at Houston: Candida albicans, C. tropicalis, C. parapsilosis, Torulopsis glabrata and Cryptococcus neoformans. The YNB tube dilution method described by Shadomy, S., et al., "Susceptibility Testing with Antifungal Drugs." In Lennette, E. H., et al. (eds.), Manual of Clinical Microbiology, 3rd Ed. (Washington, D.C., American Society for Microbiology, 1980), pp. 647-653, hereby incorporated by reference, was used to perform all tests. All tubes were subcultured (10 μl ) onto Sabouraud-dextrose agar (SDA) (Scott/Randolph, Houston, Tex.) plates. Minimal fungicidal concentrations (MFC) were determined after incubation for 18 hours. The MFC was defined as the lowest concentration of Amp B that allowed no growth or growth of fewer than four colonies on the subculture plates.

Candida tropicalis = assay: In vitro MFC, YNB tube dilution (Table 1); format: cell-based; conditions: 18 h
Procedure: as §1, §2

Candida parapsilosis = assay: In vitro MFC, YNB tube dilution (Table 1); format: cell-based; conditions: 18 h
Procedure: as §1, §2

Candida albicans = assay: In vitro MFC, YNB tube dilution (Table 1); format: cell-based; conditions: 18 h
Procedure: as §1, §2

Candida neoformans = assay: In vitro MFC, YNB tube dilution (Table 1); format: cell-based, Candida neoformans (Cryptococcus neoformans in method); conditions: 18 h
Procedure: as §1, §2

[5] = cited from earlier work
Aspergillus terreus = assay: Treatment of cancer patient, Case 2; format: in vivo, human
physchem = format: physicochemical; conditions: organic solvent or mixture
Procedure: The lipids dimyristoyl phosphatidylcholine (DMPC) and dimyristoyl phosphatidylglycerol (DMPG) were obtained from Avanti Polar Lipids (Birmingham, Ala.), and desoxycholate-free Amp B was obtained from Dr. Dan Bonner (Squibb Pharmaceuticals, New Brunswick, N.J.). DMPC and DMPG were dissolved in chloroform in a molar ratio of 7:3 DMPC:DMPG. Amp B was dissolved in methanol at a concentration of 40 μg/ml and the Amp B solution added to the chloroform containing the DMPC and DMPG. This mixture was placed in a rotary evaporator (Rotavapor®; Brinkman Instruments, Westbury, N.Y.) until all organic solvents were removed. Normal saline was then added and the vesicles formed by gentle agitation. Using this method, to prepare enough liposome-encapsulated Amp B to make up a single dose for a 50 kg patient at a dose of 0.8 mg/kg body weight (as discussed in Example 4) requires the drying of at least 1 to 1.5 liters of the Amp B-methanol solution. Under controlled temperature and pressure conditions, approximately 3 to 4 hours are required to evaporate this volume of the Amp B-methanol solution.
Using this method, 640 μg of Amp B was dissolved in 1 ml of chloroform (containing 25 mg of the lipid mixture), a significant increase over the 40 μg/ml which can be dissolved in methanol as in the method described above. […]

[6] = Poste, Biol. Cell 47; 19 (1983); cited from earlier work

C[C@@H]1[C@H](O)[C@@H](C)/C=C/C=C/C=C/C=C/C=C/C=C/C=C/[C@H](O[C@@H]2O[C@H](C)[C@@H](O)[C@H](N)[C@@H]2O)C[C@@H]2O[C@](O)(C[C@@H](O)C[C@@H](O)[C@H](O)CC[C@@H](O)C[C@@H](O)CC(=O)O[C@H]1C)C[C@H](O)[C@H]2C(=O)O [Amp B, Amphotericin B]
efficacy ranking in killing of the fungal strains [1]: Amp B being most effective, then L-Amp B, L-Amp B-C and, finally L-Amp B-E | side effects of non-liposomal Amp B therapy [2]: fever and chills were observed | toxic effects [3]: renal disfunction, anemia, fever and hypotension | MFC (C. albicans): 1.6 μg of Amp B per ML | LD50 [4]: ~1.2 mg/kg | MTD ([4]; read-out: maximum dose tolerated): 0.8 mg/kg | survival time over the controls (C. albicans 336): improved survival time over the controls | time to 50% survival (C. albicans 336; control 5 days): 10 days | MFC (Candida glabrata; strain 684): 3 μg/Amp B/ml | MFC (Candida glabrata; strain 1172): 1.6 μg/Amp B/ml | MFC (Candida glabrata; strain 1905): 3 μg/Amp B/ml | MFC (Candida glabrata; strain 2539): 3 μg/Amp B/ml | MFC (Candida tropicalis; strain 251): 3 μg/Amp B/ml | MFC (Candida tropicalis; strain 1324): 1.6 μg/Amp B/ml | MFC (Candida tropicalis; strain 1784): 3 μg/Amp B/ml | MFC (Candida tropicalis; strain 2463): 1.6 μg/Amp B/ml | MFC (Candida parapsilosis; strain 139): 3 μg/Amp B/ml | MFC (Candida parapsilosis; strain 1341): > 25 μg/Amp B/ml | MFC (Candida parapsilosis; strain 2300): 3 μg/Amp B/ml | MFC (Candida albicans; strain 57): 0.8 μg/Amp B/ml | MFC (Candida albicans; strain 306): 1.6 μg/Amp B/ml | MFC (Candida albicans; strain 704): 0.4 μg/Amp B/ml | MFC (Candida albicans; strain 1091): 0.8 μg/Amp B/ml | MFC (Candida neoformans; strain 222): 1.6 μg/Amp B/ml | MFC (Candida neoformans; strain 595): 0.4 μg/Amp B/ml | MFC (Candida neoformans; strain 843): 0.8 μg/Amp B/ml | MFC (Candida neoformans; strain 881): 1.6 μg/Amp B/ml | solubility in aqueous solution [5]: insoluble in aqueous solution | response to non-liposomal Amp B therapy (Aspergillus terreus; intravenous): nasal lesions worsened in spite of Amp B therapy and new lung lesions appeared on chest x-ray examination | response to Amp B by aerosolization (Aspergillus terreus; total of 1.4 gm by aerosolization): without improvement | side effects of non-liposomal Amp B therapy (Aspergillus terreus; total of 2.4 gm intravenously): always associated with severe nausea, fever and chills | solubility (physchem; chloroform with lipid mixture): 640 µg/mL (≈ 693 µM) | solubility (physchem; methanol): 40 µg/mL (≈ 43.3 µM)

CCCCCCCCCCCCCCCCOP(=O)(O)OCCCCCCCCCCCCCCCC [dicetyl phosphate]
toxicity in mammalian systems [6]: toxic in mammalian systems in that they cause damage to the liver

CCCCCCCCCCCCCCCCCCN [stearylamine]
toxicity in mammalian systems [6]: toxic in mammalian systems in that they cause damage to the liver
